In assay [1] the target is T1, DNA topoisomerase 2-alpha (Homo sapiens, UniProt P11388). Description: Enhancement of human DNA topoisomerase 2-mediated Escherichia coli pUC8 DNA cleavage after 30 mins by agarose gel electrophoresis. Also noted: concentration or dose not given beside the values.
Assay [2] can be described thus: Inhibition of calf thymus DNA topoisomerase 1 catalytic domain-mediated supercoiled Escherichia coli pUC8 DNA relaxation after 30 mins by agarose gel electrophoresis. Also noted: species or system Bos taurus.
The target of assay [3] is T1, DNA topoisomerase 2-alpha. The experiment in a line: Inhibition of human DNA topoisomerase 2 catalytic domain-mediated knotted bacteriophage P4Virl dell0 DNA unknotting by agarose gel electrophoresis.
Assay [4] addresses T1, DNA topoisomerase 2-alpha. The experiment in a line: Enhancement of human DNA topoisomerase 2-mediated Escherichia coli pUC8 DNA cleavage assessed as production of linear DNA at 100 ug/ml after 30 mins by agarose gel electrophoresis relative to total DNA.
For assay [5], the target named is T1, DNA topoisomerase 2-alpha. The experiment in a line: Enhancement of human DNA topoisomerase 2-mediated Escherichia coli pUC8 DNA cleavage assessed as production of linear DNA at 30 ug/ml after 30 mins by agarose gel electrophoresis.
Another assay concerns Escherichia coli. Description: Binding affinity to Escherichia coli pUC8 DNA assessed as production of linear DNA at 100 ug/ml after 30 mins by agarose gel electrophoresis.
For assay [6], the species on record is Bos taurus. Description: Inhibition of calf thymus DNA topoisomerase 1 catalytic domain-mediated supercoiled Escherichia coli pUC8 DNA relaxation up to 100 uM after 30 mins by agarose gel electrophoresis.
Assay [7] concerns the target T1, DNA topoisomerase 2-alpha. The experiment in a line: Enhancement of human DNA topoisomerase 2-mediated Escherichia coli pUC8 DNA cleavage assessed as production of linear DNA at 100 ug/ml after 30 mins by agarose gel electrophoresis.
For assay [8], the target named is T1, DNA topoisomerase 2-alpha. Description: Enhancement of human DNA topoisomerase 2-mediated Escherichia coli pUC8 DNA cleavage assessed as production of linear DNA at 100 ug/ml after 30 mins by agarose gel electrophoresis relative to control.
For assay [9], the target named is T1, DNA topoisomerase 2-alpha. Description: Inhibition of human DNA topoisomerase 2-mediated Escherichia coli pUC8 DNA cleavage enhancement assessed as absence of linear DNA production at 100 ug/ml after 30 mins by agarose gel electrophoresis in presence of 100 ug/ml genistein.
Assay [10] addresses T1, DNA topoisomerase 2-alpha. Description: Inhibition of human DNA topoisomerase 2-mediated Escherichia coli pUC8 DNA cleavage enhancement assessed as reduction of linear DNA production after 30 mins by agarose gel electrophoresis in presence of 10 fold excess genistein.
The target in assay [11] is T1, DNA topoisomerase 2-alpha. The experiment in a line: Inhibition of human DNA topoisomerase 2-mediated Escherichia coli pUC8 DNA cleavage enhancement assessed as absence of linear DNA production after 30 mins by agarose gel electrophoresis in presence of prunetin.
In assay [12] the target is T1, DNA topoisomerase 2-alpha. Description: Enhancement of human DNA topoisomerase 2-mediated Escherichia coli pUC8 DNA cleavage assessed as production of linear DNA at 3 to 100 ug/ml after 30 mins by agarose gel electrophoresis.
The species named for assay [13] is Bos taurus. The experiment in a line: Inhibition of calf thymus DNA topoisomerase 1-mediated Escherichia coli pUC8 DNA cleavage enhancement assessed as absence of linear DNA production after 30 mins by agarose gel electrophoresis in presence of camptothecin.
The target in assay [14] is T1, DNA topoisomerase 2-alpha. The experiment in a line: Inhibition of human DNA topoisomerase 2 catalytic domain-mediated knotted bacteriophage P4Virl dell0 DNA unknotting up to 100 uM by agarose gel electrophoresis.
Assay [15] deals with T1, DNA topoisomerase 2-alpha. The experiment in a line: Inhibition of human DNA topoisomerase 2 catalytic domain-mediated knotted bacteriophage P4Virl dell0 DNA unknotting at 100 uM by agarose gel electrophoresis.
The species entered for assay [16] is Bos taurus. Description: Inhibition of calf thymus DNA topoisomerase 1 catalytic domain-mediated supercoiled Escherichia coli pUC8 DNA relaxation at 100 uM after 30 mins by agarose gel electrophoresis.

≈ marks a conversion by molar mass, not a printed value. Calls of active or inactive are those of the source. The calls are words filed in the database; no cut-off is given here.

T1 sequence (P11388 whole entry, the tested form may be a part): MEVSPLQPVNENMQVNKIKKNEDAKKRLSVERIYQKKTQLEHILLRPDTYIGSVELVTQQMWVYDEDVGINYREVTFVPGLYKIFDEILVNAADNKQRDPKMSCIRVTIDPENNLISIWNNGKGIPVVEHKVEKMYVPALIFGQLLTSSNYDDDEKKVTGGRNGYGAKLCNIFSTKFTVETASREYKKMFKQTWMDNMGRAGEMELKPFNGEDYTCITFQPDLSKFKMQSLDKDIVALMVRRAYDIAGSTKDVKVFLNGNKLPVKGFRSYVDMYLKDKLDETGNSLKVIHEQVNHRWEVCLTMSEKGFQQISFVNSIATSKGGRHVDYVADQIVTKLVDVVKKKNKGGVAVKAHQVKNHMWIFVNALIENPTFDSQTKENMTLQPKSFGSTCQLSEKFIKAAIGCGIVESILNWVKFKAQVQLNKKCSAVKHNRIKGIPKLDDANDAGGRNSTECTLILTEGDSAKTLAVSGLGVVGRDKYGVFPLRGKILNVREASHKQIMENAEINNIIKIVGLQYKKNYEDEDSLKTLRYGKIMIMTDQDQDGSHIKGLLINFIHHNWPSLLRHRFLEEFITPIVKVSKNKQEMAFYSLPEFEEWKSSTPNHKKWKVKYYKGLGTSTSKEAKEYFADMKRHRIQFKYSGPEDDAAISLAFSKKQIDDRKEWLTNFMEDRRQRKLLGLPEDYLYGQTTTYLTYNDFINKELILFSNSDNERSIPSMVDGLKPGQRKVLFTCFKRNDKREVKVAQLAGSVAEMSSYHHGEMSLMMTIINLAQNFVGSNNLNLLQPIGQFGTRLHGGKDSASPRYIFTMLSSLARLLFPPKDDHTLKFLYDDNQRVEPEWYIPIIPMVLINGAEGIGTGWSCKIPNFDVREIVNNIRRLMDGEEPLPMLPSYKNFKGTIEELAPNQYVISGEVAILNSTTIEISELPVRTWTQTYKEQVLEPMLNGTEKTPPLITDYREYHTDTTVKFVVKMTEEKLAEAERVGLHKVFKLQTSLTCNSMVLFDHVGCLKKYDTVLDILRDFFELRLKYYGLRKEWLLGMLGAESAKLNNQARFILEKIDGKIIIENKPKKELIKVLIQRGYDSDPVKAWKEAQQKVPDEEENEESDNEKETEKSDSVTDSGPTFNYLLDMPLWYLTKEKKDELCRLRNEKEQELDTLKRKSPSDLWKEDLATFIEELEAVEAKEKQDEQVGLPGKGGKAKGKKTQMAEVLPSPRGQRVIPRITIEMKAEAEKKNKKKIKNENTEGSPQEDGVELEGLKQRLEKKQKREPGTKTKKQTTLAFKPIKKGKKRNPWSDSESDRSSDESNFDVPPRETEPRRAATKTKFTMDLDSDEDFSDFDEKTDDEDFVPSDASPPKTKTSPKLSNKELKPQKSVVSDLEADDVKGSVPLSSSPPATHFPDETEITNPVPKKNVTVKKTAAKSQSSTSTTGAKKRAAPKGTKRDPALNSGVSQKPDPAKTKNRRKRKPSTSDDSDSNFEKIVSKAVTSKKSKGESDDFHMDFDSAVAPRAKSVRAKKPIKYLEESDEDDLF

For the compound `O=c1c(O)c(-c2ccc(O)c(O)c2)oc2cc(O)ccc12` [FISETIN], the Activity in [1] was less than 50%. For the same compound, the IC50 is 20.6 µg/mL (≈ 72 µM) in [2] and 28.6 µM in assay [3].
Turning to `O=c1c(-c2ccc(O)cc2)coc2cc(O)cc(O)c12` [GENISTEIN], the figures for the Activity in assay [4] and in [8] were 16.2% and 3.1, respectively. The result in assay [5] and in assay [7] was Active. Besides, the outcome with Escherichia coli and in the assay filed under Bos taurus [6] was inactive. In assay [3], this compound showed an IC50 of 111 µM.
`O=c1c(O)c(-c2cc(O)c(O)c(O)c2)oc2cc(O)cc(O)c12` [MYRICETIN]: the IC50 in [2] was 11.9 µg/mL (≈ 37.4 µM). In addition, the outcome in assay [9] and in assay [11] was Active. In addition, the outcome (in assay [10]; in assay [12]; in the assay filed under Bos taurus [13]) was inactive.
On to `O=c1c(O)c(-c2ccc(O)cc2)oc2cc(O)cc(O)c12`, for which the Activity in assay [1] turned out to be 60%; in assay [4], 8.3%; in [8] it was 1.6. Further, the result (in the assay with Escherichia coli; in the assay listed under Bos taurus [6]; in [14]) was inactive.
As to `O=c1cc(-c2ccc(O)cc2)oc2cc(O)cc(O)c12`, the Activity in assay [1] worked out at 60%; in assay [4], 8.7%; in [8], 1.6. The result (in the assay on Escherichia coli; in the assay listed under Bos taurus [6]; in assay [14]) was inactive.
On to `O=c1cc(-c2ccccc2)oc2ccc(O)cc12`, for which, in assay [1], the Activity was less than 50%. Also, the outcome (in the assay filed under Bos taurus [6]; in [14]) was inactive.
`O=c1c(O)c(-c2ccc(O)c(O)c2)oc2cc(O)cc(O)c12` [QUERCETIN]: the values for the Activity in assay [1], in [4] and in [8] were 60%, 11.5% and 2.2, respectively. The result (in [15]; in the assay filed under Bos taurus [16]) was Active. Moreover, the results for the concentration for half-maximal inhibition (IC50) in assay [2] and in [3] were 12.8 µg/mL (≈ 42.4 µM) and 22.8 µM, respectively. Moreover, the result with Escherichia coli was inactive.
Take `O=c1c(O)c(-c2ccccc2)oc2ccccc12`: the outcome (in the assay listed under Bos taurus [6]; in assay [14]) was inactive.
In the case of `O=c1c(O)c(-c2ccccc2)oc2cc(O)cc(O)c12`, the outcome (in the assay filed under Bos taurus [6]; in assay [14]) was inactive.
As to `O=c1c(-c2ccc(O)cc2)coc2cc(O)ccc12`, the result (in the assay listed under Bos taurus [6]; in assay [14]) was inactive.
Regarding `C[C@@H]1O[C@@H](OC[C@H]2O[C@@H](Oc3c(-c4ccc(O)c(O)c4)oc4cc(O)cc(O)c4c3=O)[C@H](O)[C@@H](O)[C@@H]2O)[C@H](O)[C@H](O)[C@H]1O`, the result (in the assay filed under Bos taurus [6]; in assay [14]) was inactive.
With `O=c1c(-c2ccc(O)c(O)c2)coc2cc(O)ccc12`, the result (in the assay filed under Bos taurus [6]; in assay [14]) was inactive.
`O=c1cc(-c2ccccc2)oc2cccc(O)c12`: the Activity in [1] is less than 50%. The outcome (in the assay listed under Bos taurus [6]; in [14]) was inactive.
With `Oc1cc(O)c2c(c1)O[C@H](c1ccc(O)c(O)c1)[C@@H](O)C2`, the result (in the assay filed under Bos taurus [6]; in assay [14]) was inactive.
Consider `O=c1c(-c2ccc(O)cc2)coc2cc(O)c(O)cc12`, for which the outcome in the assay listed under Bos taurus [6] was inactive. In assay [3], the midpoint of inhibition, the IC50, lay at 162 µM.
Take `O=c1cc(-c2ccccc2)oc2cc(O)ccc12`: the outcome (in the assay listed under Bos taurus [6]; in assay [14]) was inactive.
As for `O=C(CCc1ccc(O)cc1)c1c(O)cc(O)cc1O` [PHLORETIN], the result in the assay listed under Bos taurus [6] was inactive. Besides, it took 168 µM to reach half-maximal inhibition in assay [3] (IC50).
Take `COc1cc(O)c2c(=O)c(-c3ccc(O)cc3)coc2c1`: the Activity stood at 60% in assay [1], 9.2% in assay [4] and 1.7 in [8]. In addition, the result (in the assay on Escherichia coli; in the assay filed under Bos taurus [6]; in [14]) was inactive.
`O=c1cc(-c2ccccc2)oc2ccccc12`: the outcome (in the assay listed under Bos taurus [6]; in assay [14]) was inactive.
Consider `O=c1c(O)c(-c2ccc(O)cc2O)oc2cc(O)cc(O)c12` [MORIN], for which the Activity in [1] is less than 50%. The IC50 in assay [2] is 42.1 µg/mL (≈ 139 µM); in assay [3], 135 µM.
